Values of other authors, collected in patent US20170022147A1, “FUMARATE COMPOUNDS, PHARMACEUTICAL COMPOSITIONS THEREOF, AND METHODS OF USE” (priority 2015, published 2017).

COC(=O)/C=C/C(=O)OC [DMF, dimethylfumarate]
aqueous solubility: poor
